From patent US8791098B2 (priority 2008, dated 2014) come the findings set out here.

The subject of one test is KB.3.1 cells. In words: Cell cycle analysis (FACS, DNA content). Format: cell-based, human. As for the experimental part: Cell cycle analysis: approximately 10^6 cells were harvested by centrifugation and fixed in −20° C. cold 80% methanol. After 30 min of incubation on ice, the cells were washed with PBS and then with saponin containing PBS (0.1%). For DNA staining cells were incubated for 30 min at 37° C. in a solution containing 20 μg ml^−1 Propidium iodide, and 1 mg ml^−1 RNase. Samples were analysed by FacScan (Becton Dickinson).
All drugs that target the microtubules are known to induce a cell cycle arrest in G2M phase in different cell lines. The ability of pre-tubulysin-816 and -827 on the progress of cell cycle in the cervices carcinoma cell line KB.3.1 was tested. Cells were treated with different concentrations of the drugs and incubated for 24 hours under cultivation conditions. After the incubation time was ended, cells were collected by centrifugation, fixed and the DNA was labeled as described in the method sections. The DNA content of the cells was detected via FACS analysis. The resulting data were calculated using Dean-Jett-Fox algorithm.

Test [1] has as its system L929, A549, SW-480, U937 and HL-60 cell lines. In words: Anti-proliferation MTT assay, comparison over the tested cell lines. In kind it is cell-based. In general terms: Formazan colour is commonly taken as a measure of viable cells.
A further test deals with HL-60 cells. In words: cells. The following applies: Homo sapiens. As for the experimental part:
A given number of cells were cultivated in 96-well plates with serial dilutions of the drugs up to 100 ng/ml. Tubulysin A is used as a positive control, whereas methanol is used as a negative control. After 5 days of incubation the metabolic activities of the cells were measured using MTT-assay as described under the methods section.
The effect of pre-tubulysin 816 and 827 was tested with regard to the growth of other cell lines, including the mouse connective tissues fibroblast L929, the human lung carcinoma cell line A549, the human colon adenocarcinoma cell line SW-480, and the human histiocytic lymphoma cell line U937, in addition to the human myeloid leukemia cell line HL-60.

Test [2] concerns the target T1, purified microtubules protein isolated from porcine brain (Sus scrofa, UniProt P02550+P02554).
T1 construct: Microtubules proteins were purified from porcine brain; from tissue; host or cells: porcine brain
Description: Turbidometric microtubules protein polymerization assay. Format: biochemical. The following applies: 10 μM microtubules protein, 10 min, 37° C. As for the experimental part: Tubulin purification: Microtubules proteins were purified from porcine brain by using standard procedures that includes three cycles of temperature-dependent polymerization and de-polymerization, as described elsewhere.
Polymerisation assay: Tubulin polymerisation was monitored by using turbidometry assay (lit). Samples (200 μl, 10 μM tubulin) in PEM polymerisation buffer (0.1 M PIPES, pH 6.6, 1 mM EGTA, 1 mM MgSO4, and 1 mM GTP), were rapidly warmed to 37° C. in a water-jacketed cuvette holder of a diode array photometer (Beckman spectrophotometer DU 7500). Absorbance at 350 nm where monitored in the absence and the presence of the drugs.
10 μM of purified microtubles protein were mixed on ice with 0, 1.7, 3.2, and 6.7 μM pre-tubulysin-816. Microtubules protein polymerization was then monitored for 10 min at 350 nm and 37° C. […] 1.7 μM of the drug was able to inhibit the polymerization of the protein by approximately 20%. Increase the concentration of the drug to 6.7 μM induced an inhibition of the polymerization to 60%.
Therefore, we were interested to test its activity on the polymerization of microtubules in vitro. We first studied its polymerization inhibition potential on microtubules polymerization. 10 μM of purified microtubules protein were mixed on ice with 0, 1, 1.7 and 3.4 μM pre-tubulysin-827 on ice. Microtubules protein polymerization was then monitored for 10 min at 350 nm and 37° C.

The subject of the next test is PtK2 cells. Format: cell-based. The following applies: for concentration at which effects on microtubules and spindle morphologies appear / concentration for complete de-polymerization (disappearance) of interphase microtubules: 24 hours incubation. As for the experimental part:
Cell staining: Ptk2 cells were seeded on round glass coverslips (13 mm in diameter) in 4-well plates. Cells were incubated with the drugs to the given times as indicated for each experiment. For staining the microtubules and the nuclei, cells were firstly fixed with cold (−20° C.) acetone/methanol (1:1) for 10 min. For labelling the microtubules, cells were incubated with a primary monoclonal antibody against α-tubulin (1:500 Sigam) for 45 min at 37° C., followed by a secondary anti-mouse IgG antibody conjugated with Alexa488 (1:2000; Molecular probes) under the same incubations conditions. The nuclei were stained with DAPI (1 μg/ml in PBS). The cells were washed with phosphate buffer saline (PBS) between incubations. Coverslips were mounted by using Prolong Antifade (Molecular Probes) and imaged through a fluorescence microscope (LSM-Zeiss) with appropriate filter set.
Tubulysin A and D are known to induce de-polymerization of the interphase microtubules of mammalian cells and additionally induce a multi-polar spindle pool in mitotic cells (Khalil, M. et al., Chembiochem. 7, 678-683 (2006); Sasse, F., Menche, D. Nat. Chem. Biol. 3, 87-89 (2007)). Here the effect of pre-tubulysin treatment on the morphologies of microtubules and microtubules related structures in PtK2 cells was tested. PtK2 cells were seeded onto glass cover clips in 4 well plates and cultivated for 24 or 48 hours under growth conditions. The cells were then treated with different concentrations of tubulysin A, tubulysin D, pre-tubulysin-816 or pre-tubulysin-827. The control cells were treated only with equivalent amount of methanol (solvent). The cells were thin incubated for further 24 hours before they were fixed as described under the methods section. Fixed cells were then washed with PBS and finally labeled with anti-α-tubulin primary antibodies followed by anti-mouse-alexa-488 secondary antibodies to visualize the microtubules. The nuclei were stained with DAPI.

In the next test the test system is A549. In words: Anti-proliferation MTT assay (Example 2, Table 1). Format: cell-based. The following applies: A549 human lung carcinoma.
In another test the test system is COS-7. In words: cells. The following applies: Chlorocebus sabaeus; COS-7, average of two measurements; read-out: IC50. In kind it is cell-based, African green monkey. As for the experimental part: Cytotoxicity testing of pretubulysin (AU827), N-desmethyl-pretubulysin (AU816) and Tubulysin A and D was performed as follows: Cells were seeded at 6×10^3 cells per well of 96-well plates in 180 μl complete medium and directly treated with varying concentrations of (pre-)tubulysins diluted in methanol. Each compound was tested in duplicate as well as the internal methanol control. After 5 d incubation, 20 μl of 5 mg/ml MTT (Thiazolyl blue tetrazolium bromide) in PBS was added per well and it was further incubated for 2 h at 37° C. The medium was then discarded and cells were washed with 100 μl PBS before adding 100 μl 2-propanol/10 N HCl (250:1) in order to dissolve formazan granules.
The absorbance at 570 nm was measured using a microplate reader (EL808, Bio-Tek Instruments Inc.), and cell viability was expressed as percentage relative to the respective methanol control. IC50 values were obtained by plotting relative growth inhibition in % against the compound concentration on a logarithmic scale. After sigmoidal curve fitting IC50 values can be determined. The IC50[per ml] are shown in the following table (values represent the average of two measurements): […]

In brackets after ≈: the same amount, converted by molar mass. Where two headings read alike, the source gives them in different places.

T1 sequence (P02554 whole entry): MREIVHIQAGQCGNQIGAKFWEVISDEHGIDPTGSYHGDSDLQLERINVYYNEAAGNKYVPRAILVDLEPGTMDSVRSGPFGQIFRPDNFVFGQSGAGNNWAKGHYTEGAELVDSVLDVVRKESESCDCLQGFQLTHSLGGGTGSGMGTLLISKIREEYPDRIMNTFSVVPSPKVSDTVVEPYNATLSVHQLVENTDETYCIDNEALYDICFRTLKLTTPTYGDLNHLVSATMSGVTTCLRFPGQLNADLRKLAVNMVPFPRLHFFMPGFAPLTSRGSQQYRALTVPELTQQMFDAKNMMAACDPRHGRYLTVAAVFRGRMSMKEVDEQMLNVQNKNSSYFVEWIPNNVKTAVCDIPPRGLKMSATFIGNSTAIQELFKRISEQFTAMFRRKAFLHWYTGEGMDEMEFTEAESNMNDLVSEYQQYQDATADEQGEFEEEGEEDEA
T1 sequence (P02550 whole entry): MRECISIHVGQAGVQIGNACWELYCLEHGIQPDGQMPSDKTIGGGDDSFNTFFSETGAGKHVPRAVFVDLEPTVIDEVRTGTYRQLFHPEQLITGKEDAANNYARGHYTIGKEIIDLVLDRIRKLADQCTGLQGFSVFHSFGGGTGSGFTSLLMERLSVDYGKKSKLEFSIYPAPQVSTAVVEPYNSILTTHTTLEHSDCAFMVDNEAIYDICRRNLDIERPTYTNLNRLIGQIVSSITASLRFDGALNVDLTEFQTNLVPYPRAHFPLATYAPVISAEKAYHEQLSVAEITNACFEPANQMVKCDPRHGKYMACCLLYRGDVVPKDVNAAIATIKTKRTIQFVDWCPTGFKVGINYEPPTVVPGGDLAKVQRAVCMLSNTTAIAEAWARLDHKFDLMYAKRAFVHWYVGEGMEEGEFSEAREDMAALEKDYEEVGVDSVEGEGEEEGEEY

`CC[C@H](C)[C@H](NC(=O)[C@H]1CCCCN1C)C(=O)N(C)[C@H](CCc1nc(C(=O)N[C@@H](Cc2ccccc2)C[C@H](C)C(=O)O)cs1)C(C)C` [pre-tubulysin-827, pretubulysin]: the “cells accumulated in the G2M-phase” value in the test on KB.3.1 cells (KB3.1 cells, 100 ng/ml, 24 h (control approximately 30%)) is reported as 65%. For the same molecule, the “potency/toxicity of pre-tubulysin-827 relative to pre-tubulysin-816” value in test [1] was 5-10 folds. Further, the IC50 came to 0.017 ng/mL (≈ 0.0254 nM) in the test with HL-60 cells (HL-60, 120 h); 0.017 ng/mL (≈ 0.0254 nM) with HL-60 cells (HL-60, read-out: IC50 value); 9 ng/mL (≈ 13.4 nM) with A549; 1.13 ng/mL (≈ 1.69 nM) in the test with COS-7. The molecule also had an inhibition at 1 µM in test [2] (1 μM drug) of roughly 45%. Besides, in test [2] (3.4 μM drug), the inhibition at 3.4 µM was greater than 85%. In addition, the “concentration at which effects on microtubules and spindle morphologies appear” value with PtK2 cells worked out at 50 ng/ml. In addition, the “concentration for complete de-polymerization (disappearance) of interphase microtubules” value is no less than 1 µg/mL in the test with PtK2 cells and 1 µg/mL in the test with PtK2 cells (listed as Pre-tubulysin-827).

For the molecule `CC[C@H](C)[C@H](NC(=O)[C@H]1CCCCN1C)C(=O)N(C)[C@H](CCc1nc(C(=O)N[C@H](CCC(=O)O)Cc2ccccc2)cs1)C(C)C` [pre-tubulysin-816, N-desmethyl-pretubulysin], the “G2M cell cycle arrest” value in the test with KB.3.1 cells (KB.3.1 cells, 24 hours) is recorded as “induced an accumulation of the cells in the G2M-phase”. Moreover, the IC50 in the test on HL-60 cells (HL-60, 120 h) came out at 0.15 ng/mL (≈ 0.229 nM); in the test with HL-60 cells (HL-60, read-out: IC50 value) it was 0.15 ng/mL (≈ 0.229 nM); with A549, 95 ng/mL (≈ 145 nM); with COS-7 it was 9.63 ng/mL (≈ 14.7 nM). In test [2] (1.7 μM drug), this molecule yielded an inhibition at 1.7 µM of roughly 20%. In test [2] (6.7 μM drug, printed as inhibition 'to 60%'), this molecule displayed an inhibition at 6.7 µM of 60%. The “concentration at which effects on microtubules and spindle morphologies appear” value in the test on PtK2 cells was no less than 500 ng/ml. The “concentration for complete de-polymerization (disappearance) of interphase microtubules” value with PtK2 cells was “around 5 μg/ml”; with PtK2 cells (listed as Pre-tubulysin-816), 5 µg/mL. Also, in the test with PtK2 cells (concentrations up to 250 ng/ml, 24 h), the “effect on the interphase microtubules” value was “did not show any clear effect”.

By IC50 is commonly meant the concentration that gives 50% inhibition. One may read the inhibition as the percentage by which the read-out fell short of the control. A higher inhibition goes with strong suppression.
